The target of test [1] is T1, Human Serotonin Transporter (hSERT) (Homo sapiens, UniProt P31645).
T1 construct: expressed in transfected cells; membranes prepared from them
Nature of the test: Human Serotonin Transporter (hSERT) Scintillation Proximity Assay (SPA), competition with [3H]-Citalopram. The format is binding. Conditions: membranes of HEK-293 cells expressing recombinant hSERT, Ki by Cheng-Prusoff; for Ki: read-out: pKi SERT (converted). A general note: Scintillation proximity formats need no separation of bound from free tracer.
Excerpt: Screening for Human Serotonin Transporter (hSERT) Antagonists Using a Scintillation Proximity Assay (SPA)
Scintillation Proximity Assay (SPA) works by bringing radioligand within close proximity to the bead's scintillant to stimulate light emission. […] Unbound radioligand produced no signal as a result of distant proximity to scintillant (lack of energy transfer).

The target in test [2] is Human Norepinephrine Transporter (hNET) (Homo sapiens, UniProt P23975). Nature of the test: Human Norepinephrine Transporter (hNET) Scintillation Proximity Assay (SPA), competition with [3H]-Nisoxetine. The following applies: membranes of HEK-293 cells expressing recombinant hNET, Ki by Cheng-Prusoff; for Ki: pKi NET.

Structures can show the parent of a compound that is named as a salt.

T1 sequence (P31645 whole entry): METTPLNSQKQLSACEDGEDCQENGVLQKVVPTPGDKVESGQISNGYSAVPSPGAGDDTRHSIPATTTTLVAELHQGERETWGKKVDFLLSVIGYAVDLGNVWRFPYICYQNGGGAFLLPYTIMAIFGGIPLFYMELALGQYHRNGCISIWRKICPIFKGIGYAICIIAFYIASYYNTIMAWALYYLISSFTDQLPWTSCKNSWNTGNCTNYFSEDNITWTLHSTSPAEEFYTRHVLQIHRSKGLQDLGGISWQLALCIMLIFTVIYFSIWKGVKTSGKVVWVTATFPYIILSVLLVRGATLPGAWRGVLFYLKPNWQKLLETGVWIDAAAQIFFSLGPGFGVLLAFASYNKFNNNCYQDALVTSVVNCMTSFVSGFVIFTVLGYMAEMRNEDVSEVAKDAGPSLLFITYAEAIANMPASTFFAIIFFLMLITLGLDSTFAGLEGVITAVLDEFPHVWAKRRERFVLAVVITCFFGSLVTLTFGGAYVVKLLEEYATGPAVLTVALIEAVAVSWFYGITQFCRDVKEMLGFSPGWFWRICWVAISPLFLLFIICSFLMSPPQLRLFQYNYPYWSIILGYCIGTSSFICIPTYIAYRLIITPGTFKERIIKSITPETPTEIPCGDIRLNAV
Human Norepinephrine Transporter (hNET), sequence (P23975 whole entry): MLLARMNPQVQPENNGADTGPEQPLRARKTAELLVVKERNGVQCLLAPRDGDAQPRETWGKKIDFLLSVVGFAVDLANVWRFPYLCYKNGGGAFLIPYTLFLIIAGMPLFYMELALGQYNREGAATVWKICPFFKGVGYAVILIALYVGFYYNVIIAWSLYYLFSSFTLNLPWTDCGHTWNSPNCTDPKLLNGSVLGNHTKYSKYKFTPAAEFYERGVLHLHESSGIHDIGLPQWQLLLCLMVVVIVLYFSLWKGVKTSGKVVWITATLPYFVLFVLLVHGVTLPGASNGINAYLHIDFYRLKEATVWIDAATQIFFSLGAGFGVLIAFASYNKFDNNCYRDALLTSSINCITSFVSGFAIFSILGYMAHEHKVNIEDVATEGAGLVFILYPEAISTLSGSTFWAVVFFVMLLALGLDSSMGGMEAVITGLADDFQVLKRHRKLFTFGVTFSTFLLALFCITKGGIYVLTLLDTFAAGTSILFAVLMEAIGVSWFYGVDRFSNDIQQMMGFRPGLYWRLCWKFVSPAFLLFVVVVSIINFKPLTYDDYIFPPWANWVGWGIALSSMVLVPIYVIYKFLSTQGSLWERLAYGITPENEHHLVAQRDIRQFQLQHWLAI

With `CNCCC(c1ccccc1)c1ccc2c(C#N)c[nH]c2c1` (stereo not shown) [Compound 28, 6-(3-Methylamino-1-phenyl-propyl)-1H-indole-3-carbonitrile], the “pKi SERT” value in test [1] came out at 9.72. Further, in test [2], the “pKi NET” value is listed as 6.89. For the molecule `CNCCC(c1ccccc1)c1cc(Cl)c2[nH]ncc2c1` (stereo not shown) [Compound 77, [3-(7-Chloro-1H-indazol-5-yl)-3-phenyl-propyl]-methyl-amine], the figures for the Ki in test [1] and in test [2] were 9.12 nM and 5.5 nM, respectively. For the molecule “[3-(4-Methoxy-1H-indol-5-yl)-3-phenyl-propyl]-methyl-amine [Compound 88]”, the “pKi SERT” value in test [1] turned out to be 7.28. The “pKi NET” value in test [2] was 7.03. Turning to `CNCCC(c1ccccc1)c1ccc2[nH]c(C(N)=O)cc2c1` (stereo not shown) [Compound 24, 5-(3-Methylamino-1-phenyl-propyl)-1H-indole-2-carboxylic acid amide], the Ki in test [1] is 70.8 nM; in test [2] it was 2.88 nM. The corresponding values for `CNCCC(c1ccccc1)c1ccc2ccn(C)c2c1` (stereo not shown) [Compound 9, Methyl-[3-(1-methyl-1H-indol-6-yl)-3-phenyl-propyl]-amine] are 9.55 nM and 74.1 nM.

Consider “[3-(7-Fluoro-1H-indol-5-yl)-3-(2-fluoro-phenyl)-propyl]-methyl-amine [Compound 95]”, for which the “pKi SERT” value in test [1] stood at 7.22. In addition, in test [2], the “pKi NET” value is recorded as 8.32.

`CCOc1n[nH]c2ccc(C(CCNC)c3ccccc3)cc12` (stereo not shown) [Compound 79, [3-(3-Ethoxy-1H-indazol-5-yl)-3-phenyl-propyl]-methyl-amine]: the Ki in test [1] is 26.9 nM; in test [2], 132 nM.

As to `CNCCC(c1ccccc1)c1ccc2[nH]ncc2c1` (stereo not shown) [Compound 51, [3-(1H-Indazol-5-yl)-3-phenyl-propyl]-methyl-amine hydrochloride], the figures for the Ki in test [1] and in test [2] were 15.8 nM and 34.7 nM, respectively. On to “[3-(1-Methanesulfonyl-1H-indol-5-yl)-3-phenyl-propyl]-methyl-amine hydrochloride [Compound 14]”, for which the “pKi SERT” value in test [1] amounted to 7.55. Also, the “pKi NET” value in test [2] turned out to be 6.57. As for `CNCCC(c1ccccc1)c1cc2cc[nH]c2cc1F` (stereo not shown) [Compound 102, [3-(6-Fluoro-1H-indol-5-yl)-3-phenyl-propyl]-methyl-amine], the values for the Ki in test [1] and in test [2] were 77.6 nM and 28.8 nM, respectively. Regarding “[3-(7-Fluoro-1H-indol-5-yl)-3-(2-methoxy-phenyl)-propyl]-methyl-amine [Compound 101]”, the “pKi SERT” value in test [1] amounted to 7.24. Further, the “pKi NET” value in test [2] is 7.58.

`NCCC(c1ccccc1)c1cc(Cl)c2[nH]c(C(N)=O)cc2c1` (stereo not shown) [Compound 103, 5-(3-Amino-1-phenyl-propyl)-7-chloro-1H-indole-2-carboxylic acid amide]: the Ki is 145 nM in test [1] and 4.37 nM in test [2]. For `CN(C)CCC(c1ccccc1)c1ccc2[nH]ccc2c1` (stereo not shown) [Compound 113, [3-(1H-Indol-5-yl)-3-phenyl-propyl]-dimethyl-amine], in that order: 178 nM and 83.2 nM. For `CNCCC(c1ccccc1)c1cc(F)c2[nH]cc(C#N)c2c1` (stereo not shown) [Compound 19], in that order: 2.14 nM and 56.2 nM.

As to “[3-(1H-Indol-6-yl)-3-(2-methoxy-phenyl)-propyl]-methyl-amine [Compound 34]”, the “pKi SERT” value in test [1] was 7.63. For the same molecule, the “pKi NET” value in test [2] was 6.59. The corresponding values for “4-Methoxy-5-(3-methylamino-1-phenyl-propyl)-1H-indole-3-carbonitrile [Compound 89]” are 9.07 and 6.05. Take `CNCCC(c1ccccc1)c1ccc2[nH]ccc2c1F` (stereo not shown) [Compound 97, [3-(4-Fluoro-1H-indol-5-yl)-3-phenyl-propyl]-methyl-amine]: the Ki in test [1] is 9.33 nM; in test [2], 17 nM. “[3-(7-Fluoro-1H-indol-5-yl)-3-(4-fluoro-phenyl)-propyl]-methyl-amine [Compound 94]”: the “pKi SERT” value in test [1] is reported as 7.75. The “pKi NET” value in test [2] was determined as 8.0. With `CNCCC(c1ccccc1)c1ccc2[nH]cc(S(C)(=O)=O)c2c1` (stereo not shown) [Compound 16], the Ki was 151 nM in test [1] and 724 nM in test [2].

In the case of `CNCCC(c1ccccc1)c1cc(OC)c2[nH]cc(C#N)c2c1` (stereo not shown) [Compound 96, 7-Methoxy-5-(3-methylamino-1-phenyl-propyl)-1H-indole-3-carbonitrile], the Ki was 85.1 nM in test [1] and 97.7 nM in test [2]. The corresponding values for `CNCCC(c1ccccc1)c1ccc2[nH]nc(C)c2c1` (stereo not shown) [Compound 58, Methyl-[3-(3-methyl-1H-indazol-5-yl)-3-phenyl-propyl]-amine] are 42.7 nM and 191 nM. For `CNCC[C@H](c1ccccc1)c1ccc2[nH]nc(Cl)c2c1` [Compound 61, [(R)-3-(3-Chloro-1H-indazol-5-yl)-3-phenyl-propyl]-methyl-amine trifluoracetate], in that order: 3.39 nM and 123 nM. The corresponding values for `CNCCC(c1ccccc1)c1cc(C(F)(F)F)c2[nH]ncc2c1` (stereo not shown) [Compound 85, Methyl-[3-phenyl-3-(7-trifluoromethyl-1H-indazol-5-yl)-propyl]-amine] are 21.4 nM and 15.1 nM. As for “[3-(7-Fluoro-1H-indol-5-yl)-3-(3-methoxy-phenyl)-propyl]-methyl-amine [Compound 100]”, the “pKi SERT” value in test [1] came to 7.79. Further, the “pKi NET” value in test [2] is reported as 7.95. For `CNCCC(c1ccc2[nH]ccc2c1)c1cccc2cc[nH]c12` (stereo not shown) [Compound 121, [3-(1H-Indol-7-yl)-3-(1H-indol-5-yl)-propyl]-methyl-amine], the Ki in test [1] is 46.8 nM; in test [2], 56.2 nM.

In the case of `CNCC[C@@H](c1ccccc1)c1cc(OC)c2[nH]ncc2c1` [Compound 82, [3-(7-Methoxy-1H-indazol-5-yl)-3-(S)-phenyl-propyl]-methyl-amine], the figures for the Ki in test [1] and in test [2] were 3.72 nM and 2.63 nM, respectively. For `CNCCC(c1ccc2[nH]ccc2c1)c1ccc2nccnc2c1` (stereo not shown) [Compound 123, [3-(1H-Indol-5-yl)-3-quinoxalin-6-yl-propyl]-methyl-amine], in that order: 47.9 nM and 112 nM.

As to `Cn1cc(C#N)c2cc(C(CCN)c3ccccc3)cc(F)c21` (stereo not shown) [Compound 126, 5-(3-Amino-1-phenyl-propyl)-7-fluoro-1-methyl-1H-indole-3-carbonitrile], the Ki in test [1] was 22.9 nM; in test [2], 398 nM.

On to “[3-(1H-Indol-6-yl)-3-phenyl-propyl]-methyl-amine [Compound 41]”, for which the “pKi SERT” value in test [1] came out at 8.01. In test [2], the “pKi NET” value came out at 7.63. The corresponding values for `CNCCC(c1ccccc1)c1cc(OC)c2cc[nH]c2c1` (stereo not shown) [Compound 30] are 9.06 and 7.63. For `CNCCC(c1ccccc1)c1ccc2[nH]cc(S(=O)(=O)N(C)C)c2c1` (stereo not shown) [Compound 90, 5-(3-Methylamino-1-phenyl-propyl)-1H-indole-3-sulfonic acid dimethylamide], the Ki in test [1] is 38 nM; in test [2], 240 nM. Regarding `CNCCC(c1ccccc1)c1ccc2[nH]c(C)cc2c1` (stereo not shown) [Compound 7, Methyl-[3-(2-methyl-1H-indol-5-yl)-3-phenyl-propyl]-amine], the Ki in test [1] was 11 nM; in test [2], 91.2 nM. The corresponding values for `CNCCC(c1ccccc1)c1ccc2sccc2c1` (stereo not shown) [Compound 143, (3-Benzo[b]thiophen-5-yl-3-phenyl-propyl)-methyl-amine] are 22.4 nM and 1.55 nM. For `CNCCC(c1ccccc1)c1cc(C)c2[nH]ncc2c1` (stereo not shown) [Compound 76, Methyl-[3-(7-methyl-1H-indazol-5-yl)-3-phenyl-propyl]-amine], in that order: 17.4 nM and 25.7 nM. For `CNCC[C@H](c1ccccc1)c1cc(C)c2[nH]ncc2c1` [Compound 78, Methyl-[3-(7-methyl-1H-indazol-5-yl)-3-(R)-phenyl-propyl]-amine], in that order: 10 nM and 19.5 nM.

With “3-[1-(7-Fluoro-1H-indol-5-yl)-3-methylamino-propyl]-benzonitrile [Compound 110]”, in test [1], the “pKi SERT” value is 7.59. Besides, the “pKi NET” value in test [2] was found to be 7.95.

Regarding `CNCC[C@H](c1ccccc1)c1cc(Cl)c2[nH]ncc2c1` [Compound 84, [3-(7-Chloro-1H-indazol-5-yl)-3-(R)-phenyl-propyl]-methyl-amine], the figures for the Ki in test [1] and in test [2] were 5.89 nM and 7.76 nM, respectively. For `CNCCC(c1ccccc1)c1cc(F)c2[nH]ccc2c1` (stereo not shown) [Compound 13], the “pKi SERT” value in test [1] was 7.4. The “pKi NET” value in test [2] is given as 8.2. The corresponding values for “7-Chloro-5-(3-methylamino-1-phenyl-propyl)-1H-indole-2-carboxylic acid amide [Compound 105]” are 7.31 and 8.35. For `CNCCC(c1ccccc1)c1ccc2[nH]c(C#N)cc2c1` (stereo not shown) [Compound 128, 5-(3-Methylamino-1-phenyl-propyl)-1H-indole-2-carbonitrile], the Ki in test [1] was 1.02 nM; in test [2], 57.5 nM. For “[3-(1H-Indol-5-yl)-3-quinolin-6-yl-propyl]-methyl-amine [Compound 112]”, the “pKi SERT” value in test [1] worked out at 8.67. In addition, the “pKi NET” value in test [2] came out at 7.5. In the case of `CNCCC(c1ccccc1)c1cc(F)c2c(c1)c(C#N)cn2C` (stereo not shown) [Compound 127, 7-Fluoro-1-methyl-5-(3-methylamino-1-phenyl-propyl)-1H-indole-3-carbonitrile], the Ki in test [1] was 8.32 nM; in test [2], 51.3 nM. On to `CNCCC(c1ccc2[nH]ccc2c1)c1nccs1` (stereo not shown) [Compound 139, [3-(1H-Indol-5-yl)-3-thiazol-2-yl-propyl]-methyl-amine], for which the Ki in test [2] was 74.1 nM.

For the origin of these results see patent EP2351737A1, “3-Amino-1-arylpropyl indoles and aza-substituted indoles” (F. Hoffmann-La Roche AG, priority 2005, dated 2007).
